From PubChem BioAssay AID1963428 (Molecular Pharmacology Branch, DTP, NCI, 2024)

System: 171881-019-R-J1-PDC complex spheroid growth, % test/control
Assay: Anticancer human tumor 171881-019-R-J1-PDC patient-derived invasive breast carcinoma cell line growth inhibition [Asc]
Settings: for IC50: curve of first compound; for viability, T/C: stronger effect = lower value
Procedure, shortened: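 Tumor cells were grown as complex spheroids with human endothelial cells (HUVEC) and human mesenchymal stem cells as stroma. Agents were tested alone and in combination, in half-log steps down from the clinical Cmax, or from 10 microM where Cmax was unknown.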

[1] = second compound 0.1 µM, first compound 0.0316 µM
[2] = second compound 0.1 µM, first compound 0.1 µM
[3] = second compound 0.1 µM, first compound 0.316 µM
[4] = second compound 0.1 µM, first compound 1 µM
[5] = second compound 0.316 µM, first compound 0.0316 µM
[6] = second compound 0.316 µM, first compound 0.1 µM
[7] = second compound 0.316 µM, first compound 0.316 µM
[8] = second compound 0.316 µM, first compound 1 µM
[9] = second compound 1 µM, first compound 0.0316 µM
[10] = second compound 1 µM, first compound 0.1 µM
[11] = second compound 1 µM, first compound 0.316 µM
[12] = second compound 1 µM, first compound 1 µM
[13] = second compound 3.16 µM, first compound 0.0316 µM
[14] = second compound 3.16 µM, first compound 0.1 µM
[15] = second compound 3.16 µM, first compound 0.316 µM
[16] = second compound 3.16 µM, first compound 1 µM
[17] = second compound 10 µM, first compound 0.0316 µM
[18] = second compound 10 µM, first compound 0.1 µM
[19] = second compound 10 µM, first compound 0.316 µM
[20] = second compound 10 µM, first compound 1 µM
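For viability, T/C in this document: spheroids exposed to compounds for 7 days.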

## C#Cc1c(F)ccc2cc(O)cc(-c3ncc4c(N5CC6CCC(C5)N6)nc(OCC56CCCN5CC(F)C6)nc4c3F)c12 (stereo not given) + Cc1c(S(C)(=O)=O)c(-c2cc(F)cc(N3CCN(c4ccc(NS(=O)(=O)c5ccc(NC(CCN6CCC(C(=O)OCCCP(=O)(O)O)CC6)CSc6ccccc6)c(S(=O)(=O)C(F)(F)F)c5)cc4)CC3)c2)c(-c2ccc(Cl)cc2)n1C(C)C
Second compound 0.1 µM
  IC50: > 10 µM
Second compound 0.316 µM
  IC50: > 10 µM
Second compound 1 µM
  IC50: > 10 µM
Second compound 3.16 µM
  IC50: 6.86 µM
Second compound 10 µM
  IC50: 4 µM
[1]
  viability, T/C: 103%
[2]
  viability, T/C: 116%
[3]
  viability, T/C: 152%
[4]
  viability, T/C: 167%
Second compound 0.1 µM, first compound 3.16 µM
  viability, T/C: 154%
Second compound 0.1 µM, first compound 10 µM
  viability, T/C: 111%
[5]
  viability, T/C: 138%
[6]
  viability, T/C: 169%
[7]
  viability, T/C: 219%
[8]
  viability, T/C: 165%
Second compound 0.316 µM, first compound 3.16 µM
  viability, T/C: 112%
Second compound 0.316 µM, first compound 10 µM
  viability, T/C: 86%
[9]
  viability, T/C: 162%
[10]
  viability, T/C: 177%
[11]
  viability, T/C: 165%
[12]
  viability, T/C: 131%
Second compound 1 µM, first compound 3.16 µM
  viability, T/C: 84.3%
Second compound 1 µM, first compound 10 µM
  viability, T/C: 61.1%
[13]
  viability, T/C: 179%
[14]
  viability, T/C: 179%
[15]
  viability, T/C: 155%
[16]
  viability, T/C: 97.6%
Second compound 3.16 µM, first compound 3.16 µM
  viability, T/C: 63.2%
Second compound 3.16 µM, first compound 10 µM
  viability, T/C: 43%
[17]
  viability, T/C: 179%
[18]
  viability, T/C: 186%
[19]
  viability, T/C: 135%
[20]
  viability, T/C: 91.5%
Second compound 10 µM, first compound 3.16 µM
  viability, T/C: 58%
Second compound 10 µM, first compound 10 µM
  viability, T/C: 33.9%

## CNC(C)C(=O)NC1CN(S(=O)(=O)c2cccc(S(=O)(=O)N3CCC4CCC(C(=O)NC(c5ccccc5)c5ccccc5)N4C(=O)C(NC(=O)C(C)NC)C3)c2)CCC2CCC(C(=O)NC(c3ccccc3)c3ccccc3)N2C1=O (stereo not given) + Cc1c(S(C)(=O)=O)c(-c2cc(F)cc(N3CCN(c4ccc(NS(=O)(=O)c5ccc(NC(CCN6CCC(C(=O)OCCCP(=O)(O)O)CC6)CSc6ccccc6)c(S(=O)(=O)C(F)(F)F)c5)cc4)CC3)c2)c(-c2ccc(Cl)cc2)n1C(C)C
Second compound 0.1 µM
  IC50: > 1 µM
Second compound 0.316 µM
  IC50: > 1 µM
Second compound 1 µM
  IC50: > 1 µM
Second compound 3.16 µM
  IC50: > 1 µM
Second compound 10 µM
  IC50: > 1 µM
Second compound 0.1 µM, first compound 0.00316 µM
  viability, T/C: 100%
Second compound 0.1 µM, first compound 0.01 µM
  viability, T/C: 90.4%
[1]
  viability, T/C: 96%
[2]
  viability, T/C: 87.8%
[3]
  viability, T/C: 82.5%
[4]
  viability, T/C: 73.2%
Second compound 0.316 µM, first compound 0.00316 µM
  viability, T/C: 110%
Second compound 0.316 µM, first compound 0.01 µM
  viability, T/C: 109%
[5]
  viability, T/C: 94.9%
[6]
  viability, T/C: 112%
[7]
  viability, T/C: 90.8%
[8]
  viability, T/C: 97.2%
Second compound 1 µM, first compound 0.00316 µM
  viability, T/C: 90.1%
Second compound 1 µM, first compound 0.01 µM
  viability, T/C: 133%
[9]
  viability, T/C: 129%
[10]
  viability, T/C: 107%
[11]
  viability, T/C: 104%
[12]
  viability, T/C: 119%
Second compound 3.16 µM, first compound 0.00316 µM
  viability, T/C: 138%
Second compound 3.16 µM, first compound 0.01 µM
  viability, T/C: 141%
[13]
  viability, T/C: 144%
[14]
  viability, T/C: 130%
[15]
  viability, T/C: 126%
[16]
  viability, T/C: 156%
Second compound 10 µM, first compound 0.00316 µM
  viability, T/C: 204%
Second compound 10 µM, first compound 0.01 µM
  viability, T/C: 171%
[17]
  viability, T/C: 172%
[18]
  viability, T/C: 183%
[19]
  viability, T/C: 161%
[20]
  viability, T/C: 173%

## Cc1nc(N2CCC3(CC2)COC(C)C3N)c(CO)nc1Sc1ccnc(N)c1Cl (stereo not given) + Cc1c(S(C)(=O)=O)c(-c2cc(F)cc(N3CCN(c4ccc(NS(=O)(=O)c5ccc(NC(CCN6CCC(C(=O)OCCCP(=O)(O)O)CC6)CSc6ccccc6)c(S(=O)(=O)C(F)(F)F)c5)cc4)CC3)c2)c(-c2ccc(Cl)cc2)n1C(C)C
Second compound 0.1 µM
  IC50: > 3 µM
Second compound 0.316 µM
  IC50: > 3 µM
Second compound 1 µM
  IC50: > 3 µM
Second compound 3.16 µM
  IC50: 2.2 µM
Second compound 10 µM
  IC50: 0.884 µM
Second compound 0.1 µM, first compound 0.00949 µM
  viability, T/C: 127%
Second compound 0.1 µM, first compound 0.03 µM
  viability, T/C: 182%
Second compound 0.1 µM, first compound 0.0949 µM
  viability, T/C: 201%
Second compound 0.1 µM, first compound 0.3 µM
  viability, T/C: 141%
Second compound 0.1 µM, first compound 0.949 µM
  viability, T/C: 118%
Second compound 0.1 µM, first compound 3 µM
  viability, T/C: 102%
Second compound 0.316 µM, first compound 0.00949 µM
  viability, T/C: 161%
Second compound 0.316 µM, first compound 0.03 µM
  viability, T/C: 223%
Second compound 0.316 µM, first compound 0.0949 µM
  viability, T/C: 187%
Second compound 0.316 µM, first compound 0.3 µM
  viability, T/C: 137%
Second compound 0.316 µM, first compound 0.949 µM
  viability, T/C: 97.3%
Second compound 0.316 µM, first compound 3 µM
  viability, T/C: 75.4%
Second compound 1 µM, first compound 0.00949 µM
  viability, T/C: 181%
Second compound 1 µM, first compound 0.03 µM
  viability, T/C: 201%
Second compound 1 µM, first compound 0.0949 µM
  viability, T/C: 144%
Second compound 1 µM, first compound 0.3 µM
  viability, T/C: 104%
Second compound 1 µM, first compound 0.949 µM
  viability, T/C: 80.4%
Second compound 1 µM, first compound 3 µM
  viability, T/C: 66.6%
Second compound 3.16 µM, first compound 0.00949 µM
  viability, T/C: 180%
Second compound 3.16 µM, first compound 0.03 µM
  viability, T/C: 174%
Second compound 3.16 µM, first compound 0.0949 µM
  viability, T/C: 113%
Second compound 3.16 µM, first compound 0.3 µM
  viability, T/C: 80.5%
Second compound 3.16 µM, first compound 0.949 µM
  viability, T/C: 59%
Second compound 3.16 µM, first compound 3 µM
  viability, T/C: 51.7%
Second compound 10 µM, first compound 0.00949 µM
  viability, T/C: 177%
Second compound 10 µM, first compound 0.03 µM
  viability, T/C: 148%
Second compound 10 µM, first compound 0.0949 µM
  viability, T/C: 112%
Second compound 10 µM, first compound 0.3 µM
  viability, T/C: 76.7%
Second compound 10 µM, first compound 0.949 µM
  viability, T/C: 41.8%
Second compound 10 µM, first compound 3 µM
  viability, T/C: 40.5%
